Patent publication US20100267561A1, “HERBICIDAL PYRIDAZINONE DERIVATIVES” (priority 2007, published 2010)

How the values were obtained:
Assay type in all cases: in vivo
Settings in all cases: applied alone
[1] = tested on: winter wheat (TRZAW, Triticum aestivum); experiment: Test F mixtures with safener cloquintocet-mexyl, pre-/postemergence plant response
Text: (§1) This test evaluated the effect of mixtures of Compound 3, Compound 11, or Compound 12 with the commercial crop safener cloquintocet-mexyl on three plant species. Seeds of test plants consisting of winter wheat (TRZAW, Triticum aestivum), winter barley (HORVX, Hordeum vulgare), and wild oat (AVEFA, Avena fatua) (a weed) were planted into a blend of loam soil and sand and treated preemergence with a directed soil spray using test chemicals formulated in a non-phytotoxic solvent mixture that included a surfactant. At the same time, plants selected from these crop and weed species were treated with postemergence applications of the test chemicals formulated in the same manner. Plants ranged in height from 2 to 18 cm (1- to 4-leaf stage) for postemergence treatments.
(§2) Plants were grown in a greenhouse using supplemental lighting to maintain a photoperiod of about 16 hours; daytime and nighttime temperatures were about 24-30° C. and 19-21° C., respectively. Balanced fertilizer was applied through the watering system. Treatments consisted of Compound 3, Compound 11, or Compound 12 and the above mentioned safener alone and in combination using a spray volume of 457 L/ha. Each treatment was replicated three times. Treated plants and controls were maintained in a greenhouse for 14 to 21 days, after which time all treated plants were compared to controls and visually evaluated. Plant response ratings were calculated as the means of the three replicates and are summarized in Tables F1 to F6, and are based on a scale of 0 to 100 where 0 is no effect and 100 is complete control. Because cloquintocet-mexyl alone caused no injury at the rates tested, the expected effect of a mixture of Compound 3 with cloquintocet-mexyl is the same as the observed effect of Compound 3 applied alone.

[2] = tested on: wild oat (AVEFA, Avena fatua); experiment: as above
Text: as §1, §2

[3] = tested on: winter barley (HORVX, Hordeum vulgare); experiment: as above
Text: as §1, §2

[4] = tested on: winter wheat (TRZAW, Triticum aestivum); experiment: Test G mixtures of Compound 26 with crop safeners, postemergence plant response
Experimental: (§3) This test evaluated the effect of mixtures of Compound 26 with commercial crop safeners cloquintocet-mexyl, mefenpyr-diethyl, and fenchlorazole-ethyl on three plant species. Seeds of winter wheat (TRZAW, Triticum aestivum), winter barley (HORVX, Hordeum vulgare), and wild oat (AVEFA, Avena fatua) (a weed) were planted into a silt loam soil. Plants from these seeds were treated postemergence using test chemicals formulated in a non-phytotoxic solvent mixture that included a surfactant. Plants ranged in height from 6 to 10 cm (2- to 3-leaf stage).
(§4) Plants were grown in a greenhouse using supplemental lighting to maintain a photoperiod of about 14 hours; daytime and nighttime temperatures were about 22-26° C. and 15-19° C., respectively. Balanced fertilizer was applied through the watering system. Treatments consisted of Compound 26 and the above mentioned safeners alone and in combination using a spray volume of 281 L/ha. Each treatment was replicated four times. Treated plants and controls were maintained in a greenhouse for 15 days, after which time all treated plants were compared to controls and visually evaluated. Plant response ratings were calculated as the means of the four replicates based on a scale of 0 to 100 where 0 is no effect and 100 is complete control and are summarized in Tables G1 to G3. Because the safeners alone caused no injury at the rates tested, the expected effect of a mixture of Compound 26 with a safener is the same as the observed effect of Compound 26 alone.
(§5) The highest application rate of each safener was tested alone to confirm the absence of herbicidal activity on the test species when appled postemergence at 125 g ai/ha. Therefore, an extrapolated result of zero for each safener alone at 16, 31, or 62 g ai/ha was used to calculate the mixture response of Compound 26 and these safener application rates.

[5] = tested on: wild oat (AVEFA, Avena fatua); experiment: as above
Experimental: as §3, §4, §5

[6] = tested on: winter barley (HORVX, Hordeum vulgare); experiment: as above
Experimental: as §3, §4, §5

Molecule | TRZAW Obsd. (observed effect) plant response rating, scale 0 to 100 ([1]; postemergence, 4 g a.i./ha) | TRZAW Obsd. (observed effect) plant response rating, scale 0 to 100 ([1]; postemergence, 8 g a.i./ha) | TRZAW Obsd. (observed effect) plant response rating, scale 0 to 100 ([1]; postemergence, 16 g a.i./ha) | TRZAW Obsd. (observed effect) plant response rating, scale 0 to 100 ([1]; preemergence, 4 g a.i./ha) | TRZAW Obsd. (observed effect) plant response rating, scale 0 to 100 ([1]; preemergence, 8 g a.i./ha) | TRZAW Obsd. (observed effect) plant response rating, scale 0 to 100 ([1]; preemergence, 16 g a.i./ha) | AVEFA Obsd. (observed effect) plant response rating, scale 0 to 100 ([2]; postemergence, 4 g a.i./ha) | AVEFA Obsd. (observed effect) plant response rating, scale 0 to 100 ([2]; postemergence, 8 g a.i./ha) | AVEFA Obsd. (observed effect) plant response rating, scale 0 to 100 ([2]; postemergence, 16 g a.i./ha) | AVEFA Obsd. (observed effect) plant response rating, scale 0 to 100 ([2]; preemergence, 4 g a.i./ha) | AVEFA Obsd. (observed effect) plant response rating, scale 0 to 100 ([2]; preemergence, 8 g a.i./ha) | AVEFA Obsd. (observed effect) plant response rating, scale 0 to 100 ([2]; preemergence, 16 g a.i./ha) | HORVX Obsd. (observed effect) plant response rating, scale 0 to 100 ([3]; postemergence, 4 g a.i./ha) | HORVX Obsd. (observed effect) plant response rating, scale 0 to 100 ([3]; postemergence, 8 g a.i./ha) | HORVX Obsd. (observed effect) plant response rating, scale 0 to 100 ([3]; postemergence, 16 g a.i./ha) | HORVX Obsd. (observed effect) plant response rating, scale 0 to 100 ([3]; preemergence, 4 g a.i./ha) | HORVX Obsd. (observed effect) plant response rating, scale 0 to 100 ([3]; preemergence, 8 g a.i./ha) | HORVX Obsd. (observed effect) plant response rating, scale 0 to 100 ([3]; preemergence, 16 g a.i./ha) | also measured
4-[3-(4-chlorophenyl)-5-methyl-1H-pyrazol-3-yl]-5-hydroxy-2-methyl-3(2H)-pyridazinone [Compound 3] | 0 | 0 | 22 | 0 | 33 | 77 | 27 | 67 | 83 | 0 | 35 | 60 | 0 | 0 | 15 | 10 | 32 | 68 | 
CCc1cc(-c2ccc(C(F)(F)F)cc2)nn1-c1c(O)cnn(C)c1=O [Compound 11, 4-[5-ethyl-3-[4-(trifluoromethyl)phenyl]-1H-pyrazol-1-yl]-5-hydroxy-2-methyl-3(2H)-pyridazinone] | 18 | 3 | 32 | 32 | 72 | 92 | 75 | 97 | 98 | 58 | 77 | 93 | 5 | 55 | 90 | 22 | 70 | 92 | 
CCc1c(C)c(-c2ccc(Cl)cc2)nn1-c1c(O)cnn(C)c1=O [Compound 26, 4-[3-(4-chlorophenyl)-5-ethyl-4-methyl-1H-pyrazol-1-yl]-5-hydroxy-2-methyl-3(2H)-pyridazinone] |  |  |  |  |  |  |  |  |  |  |  |  |  |  |  |  |  |  | TRZAW Obsd. (observed effect) plant response rating, scale 0 to 100 ([4]; 62 g a.i./ha): 10; TRZAW Obsd. (observed effect) plant response rating, scale 0 to 100 ([4]; 125 g a.i./ha): 9; TRZAW Obsd. (observed effect) plant response rating, scale 0 to 100 ([4]; 250 g a.i./ha): 36; AVEFA Obsd. (observed effect) plant response rating, scale 0 to 100 ([5]; 62 g a.i./ha): 89; AVEFA Obsd. (observed effect) plant response rating, scale 0 to 100 ([5]; 125 g a.i./ha): 97; AVEFA Obsd. (observed effect) plant response rating, scale 0 to 100 ([5]; 250 g a.i./ha): 99; HORVX Obsd. (observed effect) plant response rating, scale 0 to 100 ([6]; 62 g a.i./ha): 19; HORVX Obsd. (observed effect) plant response rating, scale 0 to 100 ([6]; 125 g a.i./ha): 34; HORVX Obsd. (observed effect) plant response rating, scale 0 to 100 ([6]; 250 g a.i./ha): 45
